Measurements: patent publication US12454527B2, “Conjugate monomethyl auristatin E to obtain a composition for treatment of prostate cancer” (priority 2019, dated 2025)
“Also recorded” adds a separate entry of the source. Non-standard residues stand in square brackets, D forms with d. Residues, ends and D or L forms follow the SMILES beside them. *: point of attachment. Dolaproine = CO[C@@H]([C@@H]1CCCN1)[C@@H](C)C(=O)O; Dil = CC[C@H](C)[C@H](NC)[C@@H](CC(=O)O)OC; X2 = C[C@@H](N*)[C@@H](O)c1ccccc1; NMeV = CN[C@H](C(=O)O)C(C)C

Legend:
[1] = Chronic toxicity study, intravenous once every 3 weeks, rats; type: in vivo
Source text: (§1) Chronic toxicity study of Conjugate (1) product on Rats and rabbits.
(§2) • 1. Conjugate (I). • 2. Solubilizer Pluronic F127—in the amount, five-fold greater than the conjugate amount by weight. • 3. Diluent—Haemodes infusion solution. • 4. Dimethyl sulfoxide—in the amount of 5% of the prepared volume.
(§3) A 1 00 white ° inbred mature male rats about 2 months old with a body weight of 190-210 g and 60 sexually mature male rabbits of the Soviet Chinchilla breed about 2 months old with a body weight of […] were involved in the experiment.
(§4) The study design determined the intravenous administration of the test drugs once every 3 weeks for 3 months (a total of 4 injections) for the experiment of chronic toxicity determination. The local irritant effect of the products within intravenous administration will be studied together with the chronic toxicity study.
(§5) Each animal received the intravenous injection of the test drug or the reference drug in a volume not exceeding the acceptable volume for a single injection of 2 mL for rats and 20 mL for rabbits. The products were replaced with a Pluronic solution with DMSO in Haemodes in the control group of animals. The duration of observation for laboratory animals was 4 weeks (intermediate stage).
(§6) Apparent signs of intoxication were evaluated daily. During the study, integral indicators of animal health were recorded (see Tables 15. 16, 17).

[2] = Chronic toxicity study, intravenous once every 3 weeks, rabbits; type: in vivo
Source text: as §1, §2, §3, §4, §5, §6

**Q.** What does the source list for `CC[C@H](C)[C@@H]([C@@H](CC(=O)N1CCC[C@H]1[C@H](OC)[C@@H](C)C(=O)N[C@H](C)[C@@H](O)c1ccccc1)OC)N(C)C(=O)[C@@H](NC(=O)[C@@H](NC)C(C)C)C(C)C` [MMAE, Monomethyl auristatin E] (H-[NMeV]V[Dil][Dolaproine]-X2)?
**A.** Signs of intoxication ([1]; male rats, group 5, 10 μg/kg intravenously 1 time in 3 weeks): with impaired movement; also recorded: coordination, shortness of breath,; also recorded: diarrhea; also recorded: position, tremor, the hind limb; also recorded: the hindlimb paresis; rats No. 3-5 -; also recorded: decreased motor activity, the hind; also recorded: hindlimb paresis, porphyrin secretion; Signs of intoxication: loss of body weight ([1]; male rats, group 5, 10 μg/kg, 30 Apr. 2019): 15 to 20 g; Necropsy ([1]; male rats, group 5, 10 μg/kg, animals No. 1, 5, 6 and No. 3): severely inflated; adrenal glands were 2-fold; also recorded: increase; blood in the kidneys, pink renal pelvis; also recorded: hemorrhages and ulcers; the kidneys were pale,; also recorded: liver was granular, palish; Animals survived up to the second injection ([1]; rats, chronic, reference drug): only one rat animal; Chronic toxicity (overall) ([1]; rats, i.v. once every 3 weeks, intermediate stage 4 weeks): high toxicity; Signs of intoxication: the intake of feed and water ([2]; male rabbits, group 10, 5.4 μg/kg, after administration): decreased. About a day after; Signs of intoxication ([2]; male rabbits, group 10, 5.4 μg/kg, about a day after administration and before death): superficial respiration and adynamia; Necropsy ([2]; male rabbits, group 10, 5.4 μg/kg, rabbit No. 4): grayish tint; thymus had hemorrhages;; Animals survived up to the second injection ([2]; rabbits, chronic, reference drug): no rabbits; Chronic toxicity (overall) ([2]; rabbits, i.v. once every 3 weeks, intermediate stage 4 weeks): high toxicity
